From ChEMBL document CHEMBL1145374, “Discovery of para-alkylthiophenoxyacetic acids as a novel series of potent and selective PPARdelta agonists” (Bioorg Med Chem Lett, 2007)
pEC50: −log10 of the molar value.

Columns and labels:
[1] = biological target: T1, Peroxisome proliferator-activated receptor alpha (Homo sapiens, UniProt Q07869); assay: Activity at human PPARalpha receptor by cell based transactivation assay
T1 sequence (Q07869 whole entry): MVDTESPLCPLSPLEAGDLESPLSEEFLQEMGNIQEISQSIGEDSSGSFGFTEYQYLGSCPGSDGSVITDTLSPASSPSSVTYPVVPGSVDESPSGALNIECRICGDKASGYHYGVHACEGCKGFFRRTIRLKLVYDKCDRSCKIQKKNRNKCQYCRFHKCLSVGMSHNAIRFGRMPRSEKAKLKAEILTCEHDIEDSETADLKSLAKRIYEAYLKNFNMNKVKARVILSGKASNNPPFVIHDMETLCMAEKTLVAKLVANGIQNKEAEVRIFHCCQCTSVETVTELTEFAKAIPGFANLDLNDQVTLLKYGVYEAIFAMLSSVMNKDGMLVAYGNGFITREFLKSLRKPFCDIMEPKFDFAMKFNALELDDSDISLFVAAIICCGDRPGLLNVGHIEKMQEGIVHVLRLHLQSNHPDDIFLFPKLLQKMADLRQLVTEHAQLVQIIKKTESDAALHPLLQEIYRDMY

[2] = biological target: T2, Peroxisome proliferator-activated receptor delta (Homo sapiens, UniProt Q03181); assay: Agonist activity at human PPARdelta receptor by cell based transactivation assay; assay type: functional
T2 sequence (Q03181 whole entry): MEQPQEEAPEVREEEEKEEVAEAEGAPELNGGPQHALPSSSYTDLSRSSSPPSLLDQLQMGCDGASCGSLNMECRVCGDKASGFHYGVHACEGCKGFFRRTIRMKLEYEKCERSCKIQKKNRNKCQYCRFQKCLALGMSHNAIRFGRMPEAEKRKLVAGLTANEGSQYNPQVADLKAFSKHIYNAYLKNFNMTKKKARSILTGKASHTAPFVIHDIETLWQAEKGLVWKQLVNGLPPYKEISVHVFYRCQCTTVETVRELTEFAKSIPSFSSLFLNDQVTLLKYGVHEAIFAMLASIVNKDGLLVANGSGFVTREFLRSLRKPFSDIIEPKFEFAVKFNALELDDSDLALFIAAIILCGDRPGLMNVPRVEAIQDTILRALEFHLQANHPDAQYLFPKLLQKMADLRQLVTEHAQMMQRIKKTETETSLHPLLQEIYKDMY

[3] = biological target: T3, Peroxisome proliferator-activated receptor gamma (Homo sapiens, UniProt P37231); assay: Activity at human PPARgamma receptor by cell based transactivation assay
T3 sequence (P37231 whole entry): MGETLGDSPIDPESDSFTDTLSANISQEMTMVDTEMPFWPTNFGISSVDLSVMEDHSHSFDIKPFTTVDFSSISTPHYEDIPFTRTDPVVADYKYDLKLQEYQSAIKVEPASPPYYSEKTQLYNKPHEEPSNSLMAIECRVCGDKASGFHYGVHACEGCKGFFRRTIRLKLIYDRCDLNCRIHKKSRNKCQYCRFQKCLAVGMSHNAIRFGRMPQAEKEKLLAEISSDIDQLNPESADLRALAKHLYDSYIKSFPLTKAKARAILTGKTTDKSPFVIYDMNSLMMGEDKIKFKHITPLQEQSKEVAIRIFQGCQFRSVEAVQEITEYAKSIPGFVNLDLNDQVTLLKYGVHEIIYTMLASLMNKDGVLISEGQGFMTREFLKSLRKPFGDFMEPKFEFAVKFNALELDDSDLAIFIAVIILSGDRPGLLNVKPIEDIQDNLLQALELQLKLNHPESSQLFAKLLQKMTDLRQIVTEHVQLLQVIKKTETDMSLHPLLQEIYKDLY

[4] = Half life in rat; assay type: ADME, organism-based; details: in vivo
[5] = Oral bioavailability in rat; assay type: ADME, organism-based; details: in vivo
[6] = Cmax in rat; assay type: ADME, organism-based; details: in vivo
[7] = Tmax in rat; assay type: ADME, organism-based; details: in vivo
[8] = AUC in rat; assay type: ADME, organism-based; details: plasma

| pEC50 [1] | pEC50 [2] | pEC50 [3] | Structure (SMILES) | also measured |
| --- | --- | --- | --- | --- |
| < 6.00 | 8.41 | < 6.00 | C=CCOC(COc1ccc(C(F)(F)F)cc1)CSc1ccc(OCC(=O)O)c(C)c1 (stereo not given) |  |
| < 6.00 |  | < 6.00 | COCO[C@H](COc1ccc(C(F)(F)F)cc1)CSc1ccc(OCC(=O)O)c(C)c1 |  |
| < 6.00 | < 5.52 | < 6.00 | CCO[C@H](COc1ccc(C(F)(F)F)cc1)C[S+]([O-])c1ccc(OCC(=O)O)c(C)c1 (stereo not given in full) |  |
| < 6.00 | 8.47 | < 6.00 | CCOC(COc1ccc(C(F)(F)F)cc1)CSc1ccc(OCC(=O)O)c(C)c1 (stereo not given) |  |
| < 6.00 |  | < 6.00 | COc1ccc(OC(COc2ccc(C(F)(F)F)cc2)CSc2ccc(OCC(=O)O)c(C)c2)cc1 (stereo not given) |  |
| < 6.00 |  | < 6.00 | CCCOC(COc1ccc(C(F)(F)F)cc1)CSc1ccc(OCC(=O)O)c(C)c1 (stereo not given) |  |
| < 6.00 |  | < 6.00 | CCOC(CCc1ccc(C(F)(F)F)cc1)CSc1ccc(OCC(=O)O)c(C)c1 (stereo not given) |  |
| < 6.00 | 8.13 | < 6.00 | Cc1cc(SCC(C)COc2ccc(C(F)(F)F)cc2)ccc1OCC(=O)O (stereo not given) |  |
| < 6.00 |  | < 6.00 | COCOC(COc1ccc(C(F)(F)F)cc1)CSc1ccc(OCC(=O)O)c(C)c1 (stereo not given) |  |
| < 6.00 |  | < 6.00 | Cc1cc(SCC(O)COc2ccc(C(F)(F)F)cc2)ccc1OCC(=O)O (stereo not given) |  |
| < 6.00 | 8.72 | < 6.00 | CCO[C@H](COc1ccc(C(F)(F)F)cc1)CSc1ccc(OCC(=O)O)c(C)c1 |  |
| < 6.00 |  | < 6.00 | Cc1cc(SCC(COc2ccc(C(F)(F)F)cc2)COc2ccc(C(F)(F)F)cc2)ccc1OCC(=O)O |  |
| < 6.00 |  | < 6.00 | Cc1cc(SCC(COc2ccc(C(F)(F)F)cc2)OCc2ccccc2)ccc1OCC(=O)O (stereo not given) |  |
| < 6.00 | 7.73 | < 6.00 | COC(COc1ccc(C(F)(F)F)cc1)CSc1ccc(OCC(=O)O)c(C)c1 (stereo not given) |  |
| < 6.00 | 7.15 | < 6.00 | COCO[C@@H](COc1ccc(C(F)(F)F)cc1)CSc1ccc(OCC(=O)O)c(C)c1 |  |
| < 6.00 | 7.82 | < 6.00 | CSCOC(CCc1ccc(C(F)(F)F)cc1)CSc1ccc(OCC(=O)O)c(C)c1 (stereo not given) |  |
| < 6.00 |  | < 6.00 | CCOCC(COc1ccc(C(F)(F)F)cc1)CSc1ccc(OCC(=O)O)c(C)c1 (stereo not given) |  |
| < 6.00 | 10.22 | < 6.00 | CCC(COc1ccc(C(F)(F)F)cc1)CSc1ccc(OCC(=O)O)c(C)c1 (stereo not given) |  |
| < 6.00 | 8.15 | < 6.00 | CCCCOC(COc1ccc(C(F)(F)F)cc1)CSc1ccc(OCC(=O)O)c(C)c1 (stereo not given) |  |
| < 6.00 |  | < 6.00 | CCOC(COc1ccc(C(F)(F)F)cc1)COc1ccc(OCC(=O)O)c(C)c1 (stereo not given) |  |
| < 6.00 | 7.60 | < 6.00 | CCO[C@@H](COc1ccc(C(F)(F)F)cc1)CSc1ccc(OCC(=O)O)c(C)c1 |  |
| < 6.00 | 10.52 | < 6.00 | CC[C@H](COc1ccc(C(F)(F)F)cc1)CSc1ccc(OCC(=O)O)c(C)c1 | half-life [4]: 8.2 h; bioavailability [5]: 84%; Cmax [6]: 8870 ng/mL; Tmax [7]: 0.5 h; AUC [8]: 13600 ng·h/mL |
| < 6.00 |  | < 6.00 | CCCC(=O)c1ccc(OC(COc2ccc(C(F)(F)F)cc2)CSc2ccc(OCC(=O)O)c(C)c2)cc1 (stereo not given) |  |
| < 6.00 |  | < 6.00 | Cc1cc(SCC(COc2ccc(C(F)(F)F)cc2)OCC(=O)O)ccc1OCC(=O)O (stereo not given) |  |
